Experiments:
WT and Mll3/4 KO mESCs = assay: RNA-seq of WT and Mll3/4 KO mESCs treated with LTX -/+ HPX; format: cell-based, mouse; details: 0.3 μM LTX or 50 μM HPX alone, 48 hours; LTX effect almost completely rescued by HPX
Experimental: (§1) FIG. 3. […] (A) WT and Mll3/4 KO cells were treated with 0-2.5 μM lometrexol (LTX)−/+50 hypoxanthine (HPX) for 48 hours. CellTiter-Glo® luminescent cell viability assay was performed to determine the percentage of inhibition under these conditions. (B) WT and KO cells were treated with 0.3 μM LTX−/+50 μM HPX for 48 hours, and cells were harvested for RNA-seq. Differential gene expression analyses were performed with indicated comparisons. (C) Principal component analysis of RNA-seq in (B). (D) Hierarchical clustering heatmap showing differentially expressed genes in KO cells in comparison with WT cells.
(§2) FIG. 10. Mll3/4 KO mESCs are more sensitive to purine synthesis inhibition. (A-B) WT and Mll3/4 KO cells were treated with 0-2.5 μM lometrexol (LTX) (A) or 0-5 methotrexate (MTX) (B) for 48 hours. CellTiter-Glo® luminescent cell viability assay was performed to determine the percentage of inhibition under these conditions with three different Mll3/4 KO clones included. (C) WT and Mll3/4 KO cells were treated with 0-40 μM SHIINI for 48 hours. MTT cell viability assay was performed to determine the percentage of inhibition under these conditions with three different Mll3/4 KO clones included.
Gene count tables were constructed using HTseq (56) with Ensembl gene annotations and used as input for edgeR 3.0.8 (57). Genes with Benjamini-Hochburg adjusted p-values less than were differentially expressed. Batch effects were removed using ComB at-seq on the raw read counts (58). Pathway analysis was performed with Metascape (59).

[1] = tested on: MLL4 mutant colorectal cancer cells (SW480, DLD1, HCT116, RKO); assay: CellTiter-Glo viability assay in MLL4 wild type and MLL4 mutant colorectal cell lines; format: cell-based, human; details: 72 hours; LTX 0-30 μM, Piericidin A 0-10 μM, Phenformin 0-30 mM
Mll3/4 KO mESCs [2] = assay: MTT cell viability assay in WT and Mll3/4 KO mESCs; format: cell-based, mouse; details: 0-40 μM, 48 hours; three Mll3/4 KO clones
Experimental: as §2

[3] = tested on: CAL51 breast cancer cells; assay: CellTiter-Glo viability assay in CAL51 MLL4 WT, hNTD and KO cells; format: cell-based, human
Experimental: FIG. 17. Cells lacking of MLL4 function are selectively sensitive to de novo purine synthesis inhibition. (A) Tracer levels of glutamine (M+1) in SW1417, Caco2, RKO and HCT116 cells. (B) Labeled purine metabolite levels with 15 N glutamine tracing in SW1417, Caco2, RKO and HCT116 cells. MLL4 WT cells, blue; MLL4 mutant cells, red. (C) CellTiter-Glo® luminescent cell viability assay in CAL51 MLL4 WT, heterozygous truncation mutation (hNTD), and KO cells treated with MTX (0-1 μM). (D) CAL51 WT and MLL4KO cells were treated with 0.04, or 0.4 μM MTX in the presence of H2O, 50 μM thymidine or 50 μM inosine. CellTiter-Glo® luminescent cell viability assay was performed. (E-J) Cells were infected with lentiviruses expressing shCtrl, shGART or shPAICS. Two distinct shRNAs were included for GART and PAICS. Western blot showing the knockdown of GART and PAICS in RKO, HCT116, Caco2 and HT55 cells (E). The growth rates of HCT116 (F), RKO (G), Caco2 (H) and HT55 (I) cells with shCtrl, shGART or shPAICS were measured by cell counting, and the cell number was normalized with day 0. Colony formation of the four cell lines with GART or PAICS knockdown was performed by seeding 500 or 1000 cells in the 6 well plates and stained after 10-14 days of culture with media change every three days (J).

Mll3/4 KO mESCs [4] = assay: CellTiter-Glo luminescent cell viability assay in WT and Mll3/4 KO mESCs; format: cell-based, mouse; details: 48 hours; LTX 0-2.5 μM, MTX 0-5; three Mll3/4 KO clones
Experimental: as §1, §2

With `O=c1[nH]cnc2nc[nH]c12` [HPX, hypoxanthine] as the compound, how does the “gene expression change in WT and Mll3/4 KO cells” value (WT and Mll3/4 KO mESCs) read?
The value was “subtle gene expression or phenotypic change”.

`[H]/N=C(/N)N/C(=N/[H])NCCc1ccccc1` [Phenformin] was tested. Which “sensitivity of MLL4 mutant cells compared with MLL4 wild type cells (growth inhibition)” value [1] did it give?
The value was “no sensitivity difference between MLL4 WT and mutant cells”.

For `C/C=C(\C)[C@H](O)[C@H](C)/C=C(C)/C=C/C/C(C)=C/Cc1nc(OC)c(OC)c(O)c1C` [Piericidin A], which “sensitivity of MLL4 mutant cells compared with MLL4 wild type cells (growth inhibition)” value [1] is on record?
The value was “no sensitivity difference between MLL4 WT and mutant cells”.

`Cc1[nH]nc2c1C(c1cc(CO)cc(-c3ccccc3)c1)(C(C)C)C(C#N)=C(N)O2` (stereo not shown) [SHIN1] was tested. Which “sensitivity of Mll3/4 KO cells compared with WT cells (percentage of inhibition, MTT)” value (Mll3/4 KO mESCs [2]) did it give?
The value was “enhanced sensitivity”.

How did the “rescue of cytotoxic effect on MLL4KO cells by nucleosides” value ([3]; 0.04 or 0.4 μM MTX with 50 μM thymidine or 50 μM inosine) turn out when `CN(Cc1cnc2nc(N)nc(N)c2n1)c1ccc(C(=O)N[C@@H](CCC(=O)O)C(=O)O)cc1` [methotrexate, (2S)-2-[[4-[(2,4-diaminopteridin-6-yl)methyl-methylamino]benzoyl]amino]pentanedioic acid] was run?
The value was “rescued by inosine not thymidine”.

And the “sensitivity of CAL51 cells with compromised MLL4 functions (MLL4hNTD, MLL4KO) compared with WT” value ([3]; MTX 0-1 μM)?
The value was “elevated MTX sensitivity”.

And the “sensitivity of Mll3/4 KO cells compared with WT cells (percentage of inhibition of viability)” value (Mll3/4 KO mESCs [4])?
Its value is “enhanced sensitivity”.

— US20230390297A1, “USE OF NUCLEOTIDE SYNTHESIS INHIBITORS FOR TARGETED THERAPY IN MLL3/4 COMPASS MUTANT CANCER” (priority 2022, published 2023)
